Key:
Carbonic anhydrase 13 = Carbonic anhydrase 13 (Homo sapiens, UniProt Q8N1Q1); experiment: Inhibition of human carbonic anhydrase 13 preincubated for 6 hrs by CO2 hydration stopped-flow assay
Carbonic anhydrase 2 = Carbonic anhydrase 2 (Homo sapiens, UniProt P00918); experiment: Inhibition of human carbonic anhydrase 2 preincubated for 6 hrs by CO2 hydration stopped-flow assay
Carbonic anhydrase 1 = Carbonic anhydrase 1 (Homo sapiens, UniProt P00915); experiment: Inhibition of human carbonic anhydrase 1 preincubated for 6 hrs by CO2 hydration stopped-flow assay
Carbonic anhydrase 12 = Carbonic anhydrase 12 (Homo sapiens, UniProt O43570); experiment: Inhibition of human carbonic anhydrase 12 preincubated for 6 hrs by CO2 hydration stopped-flow assay
Carbonic anhydrase 7 = Carbonic anhydrase 7 (Homo sapiens, UniProt P43166); experiment: Inhibition of human carbonic anhydrase 7 preincubated for 6 hrs by CO2 hydration stopped-flow assay
Carbonic anhydrase 9 = Carbonic anhydrase 9 (Homo sapiens, UniProt Q16790); experiment: Inhibition of human carbonic anhydrase 9 preincubated for 6 hrs by CO2 hydration stopped-flow assay

Chain of Carbonic anhydrase 13 (Q8N1Q1 whole entry): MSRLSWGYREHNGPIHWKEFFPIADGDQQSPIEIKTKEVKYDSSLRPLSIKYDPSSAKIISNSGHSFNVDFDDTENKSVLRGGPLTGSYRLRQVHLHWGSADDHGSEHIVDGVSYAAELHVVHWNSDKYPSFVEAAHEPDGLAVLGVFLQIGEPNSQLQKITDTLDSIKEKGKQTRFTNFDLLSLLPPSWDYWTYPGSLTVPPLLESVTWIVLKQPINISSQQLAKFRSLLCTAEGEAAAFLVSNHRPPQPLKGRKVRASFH
Chain of Carbonic anhydrase 1 (P00915 whole entry): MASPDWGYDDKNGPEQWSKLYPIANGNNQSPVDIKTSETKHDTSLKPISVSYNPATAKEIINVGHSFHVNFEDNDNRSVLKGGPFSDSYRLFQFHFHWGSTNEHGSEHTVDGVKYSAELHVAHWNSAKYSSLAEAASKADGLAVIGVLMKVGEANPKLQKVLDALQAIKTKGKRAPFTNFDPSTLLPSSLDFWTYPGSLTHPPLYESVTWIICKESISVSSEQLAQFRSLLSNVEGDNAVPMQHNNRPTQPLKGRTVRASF
Chain of Carbonic anhydrase 12 (O43570 whole entry): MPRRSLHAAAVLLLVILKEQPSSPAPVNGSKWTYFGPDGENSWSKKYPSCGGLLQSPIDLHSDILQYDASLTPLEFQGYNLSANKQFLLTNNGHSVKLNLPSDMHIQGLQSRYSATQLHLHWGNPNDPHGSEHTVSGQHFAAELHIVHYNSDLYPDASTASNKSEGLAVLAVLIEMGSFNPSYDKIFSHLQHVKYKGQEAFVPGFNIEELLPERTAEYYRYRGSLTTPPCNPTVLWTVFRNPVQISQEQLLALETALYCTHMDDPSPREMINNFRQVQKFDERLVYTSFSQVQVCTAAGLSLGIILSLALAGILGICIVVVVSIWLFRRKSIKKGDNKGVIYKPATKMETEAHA
Chain of Carbonic anhydrase 7 (P43166 whole entry): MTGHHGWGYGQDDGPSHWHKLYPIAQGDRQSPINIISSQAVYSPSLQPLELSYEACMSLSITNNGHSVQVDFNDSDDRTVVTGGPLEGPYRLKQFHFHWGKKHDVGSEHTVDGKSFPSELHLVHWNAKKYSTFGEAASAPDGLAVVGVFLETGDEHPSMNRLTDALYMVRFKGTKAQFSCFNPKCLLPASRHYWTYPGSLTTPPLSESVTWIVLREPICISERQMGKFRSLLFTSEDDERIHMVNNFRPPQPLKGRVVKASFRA

| Structure (SMILES) | Ki (Carbonic anhydrase 13) | Ki (Carbonic anhydrase 2) | Ki (Carbonic anhydrase 1) | Ki (Carbonic anhydrase 12) | Ki (Carbonic anhydrase 7) | Ki (Carbonic anhydrase 9) |
| --- | --- | --- | --- | --- | --- | --- |
| COc1cc2ccc(=O)oc2c(O[C@@H]2O[C@H](CO)[C@@H](O)[C@H](O)[C@H]2O)c1O [FRAXINE] | 9.8 µM | > 100 µM | 5.04 µM | 7.45 µM | 3.87 µM | 0.37 µM |
| COc1c2c(c(OC)c3oc(=O)ccc13)OC(C)(C)C=C2 | > 100 µM | 49.3 µM | – | – | – | 0.86 µM |
| COc1cc(OC)c2ccc(=O)oc2c1OC | – | 9.65 µM | – | – | – | 0.76 µM |
| COc1c(O)ccc2ccc(=O)oc12 | – | > 100 µM | – | – | – | 0.85 µM |
| COc1c2c(cc3oc(=O)ccc13)OC(C)(C)C=C2 [XANTHOXYLETIN] | 3.15 µM | > 100 µM | 7.71 µM | 0.96 µM | 6.27 µM | 0.74 µM |
| C/C(=C\COc1ccc2ccc(=O)oc2c1)C1=CC(=O)C(C)(C)O1 [GEIPARVARIN] | 9.62 µM | > 100 µM | 9.75 µM | 0.83 µM | 7.82 µM | 0.6 µM |
| O=c1ccc2ccccc2o1 [COUMARIN] | > 1000 µM | – | – | – | > 1000 µM | – |
| COc1cc2oc(=O)ccc2cc1O [ISOSCOPOLETIN] | 5.27 µM | > 100 µM | 14 µM | 4.14 µM | 23.8 µM | 7.37 µM |
| COc1cc2c(=O)oc3c(OC)c(OC)cc4c(=O)oc(c1O)c2c34 | – | > 100 µM | – | – | – | 17.4 µM |
| C=C(C)/C=C/c1c(OC)c2c(c3ccc(=O)oc13)OC(C)(C)C=C2 | – | > 100 µM | – | – | – | 0.62 µM |
| CC(CCOc1ccc2ccc(=O)oc2c1)C1=CC(=O)C(C)(C)O1 (centres undefined) | – | 63.4 µM | – | – | – | 0.89 µM |
| COc1cc(-c2c3c4cc(OC)c(O)cc4oc(=O)c3n3ccc4c(OC)c(OC)c(OC)cc4c23)ccc1O | – | > 100 µM | – | – | – | 6.33 µM |
| COc1cc2ccc(=O)oc2cc1O[C@@H]1O[C@H](CO)[C@@H](O)[C@H](O)[C@H]1O [SCOPOLIN] | – | > 100 µM | – | – | – | 8.72 µM |
| C/C(=C\Cc1cc2ccc(=O)oc2cc1O)CO | – | 78.9 µM | – | – | – | 9.75 µM |
| C=C(C)C(COC(=O)c1cccnc1)c1c(OC)ccc2ccc(=O)oc12 (centres undefined) | – | > 100 µM | – | – | > 100 µM | 0.67 µM |
| COc1ccc2ccc(=O)oc2c1C(C=O)=C(C)C [MURRALONGIN] | – | > 100 µM | – | – | – | 8.12 µM |
| COc1ccc(-c2c3n(c4c(=O)oc5cc(OC)c(O)cc5c24)CCc2cc(OS(=O)(=O)O)c(OC)cc2-3)cc1O | – | > 100 µM | – | – | – | 3.27 µM |
| COc1c2c(c3ccc(=O)oc3c1/C=C/C(C)(C)O)OC(C)(C)C=C2 [AVICENNOL] | 29.3 µM | > 100 µM | 8.46 µM | 0.77 µM | 8.98 µM | 0.78 µM |
| COc1cc2ccc(=O)oc2c(OC)c1OC [FRAXIDIN METHYL ETHER] | 4.24 µM | > 100 µM | 0.0097 µM | 18.2 µM | 9.28 µM | 6.58 µM |
| COc1cc2ccc(=O)oc2c(O)c1OC | – | > 100 µM | – | – | – | 0.85 µM |
| COc1ccc(-c2c3n(c4c(=O)oc5cc(O)c(OC)cc5c24)CCc2c-3cc(OC)c(OC)c2O)cc1O | – | > 100 µM | – | – | – | 3.22 µM |
| COc1cc2oc(=O)ccc2c2c1C=CC(C)(C)O2 [ALLOXANTHOXYLETIN] | – | > 100 µM | – | – | – | 3.5 µM |
| CC1(C)C=Cc2cc3ccc(=O)oc3cc2O1 [XANTHYLETIN] | 8.36 µM | > 100 µM | 21.5 µM | 25.7 µM | 9.18 µM | 7.51 µM |
| CCCc1cc(=O)oc2c3c(c4c(c12)OC(C)(C)C=C4)O[C@H](C)[C@@H](C)[C@H]3O [(+)-CALANOLIDE B] | 21 µM | 50.7 µM | 9.31 µM | 0.81 µM | 8.87 µM | – |
| C/C(=C\COc1ccc2ccc(=O)oc2c1)CCC(=O)C(C)(C)O | – | > 100 µM | – | – | – | 4.03 µM |
| COc1cc2ccc(=O)oc2cc1O [SCOPOLETIN] | 17.8 µM | > 100 µM | 10.6 µM | 4.05 µM | 8.71 µM | 0.96 µM |
| O=c1oc2c(O)c(O)cc3c(=O)oc4c(O)c(O)cc1c4c23 [ELLAGIC ACID] | 4.24 µM | – | 68.2 µM | 8.15 µM | 8.79 µM | 79.8 µM |

From ChEMBL document CHEMBL2331395, “Natural product coumarins that inhibit human carbonic anhydrases” (Bioorg Med Chem, 2013)
